Data published in PubChem BioAssay (NCI).
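96-well plates; 48 h exposure; 5 concentrations. Endpoints by linear interpolation between flanking doses. Not reached: highest tested concentration assigned. The concentration for 50% growth inhibition is given as GI50. TGI: concentration producing complete growth inhibition.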

How the values were obtained:
Test in all cases: NCI-60 cell line screen, 48 h
[1] = test system: 786-0 renal
[2] = test system: A498 renal
[3] = test system: A549 NSCLC
[4] = test system: ACHN renal
[5] = test system: BT-549 breast
[6] = test system: CAKI-1 renal
[7] = test system: CCRF-CEM leukemia
[8] = test system: COLO 205 colon
[9] = test system: DU-145 prostate
[10] = test system: EKVX NSCLC
[11] = test system: HCC-2998 colon
[12] = test system: HCT-116 colon
[13] = test system: HCT-15 colon
[14] = test system: HL-60(TB) leukemia
[15] = test system: HOP-62 NSCLC
[16] = test system: HOP-92 NSCLC
[17] = test system: HS 578T breast
[18] = test system: HT29 colon
[19] = test system: IGROV1 ovarian
[20] = test system: K-562 leukemia
[21] = test system: KM12 colon
[22] = test system: LOX IMVI melanoma
[23] = test system: M14 melanoma
[24] = test system: MALME-3M melanoma
[25] = test system: MCF7 breast
[26] = test system: MDA-MB-231 breast
[27] = test system: MDA-MB-435
[28] = test system: MOLT-4 leukemia
[29] = test system: NCI-H226 lung
[30] = test system: NCI-H23 lung
[31] = test system: NCI-H460 lung
[32] = test system: NCI-H522 lung
[33] = test system: NCI/ADR-RES ovarian
[34] = test system: OVCAR-3 ovarian
[35] = test system: OVCAR-4 ovarian
[36] = test system: OVCAR-5 ovarian
[37] = test system: OVCAR-8 ovarian
[38] = test system: PC-3 prostate
[39] = test system: RPMI-8226 leukemia
[40] = test system: SF-268 CNS
[41] = test system: SF-295 CNS
[42] = test system: SF-539 CNS
[43] = test system: SK-MEL-2 melanoma
[44] = test system: SK-MEL-28 melanoma
[45] = test system: SK-MEL-5 melanoma
[46] = test system: SK-OV-3 ovarian
[47] = test system: SN12C renal
[48] = test system: SNB-19 CNS
[49] = test system: SNB-75 CNS
[50] = test system: SR leukemia
[51] = test system: SW-620 colon
[52] = test system: TK-10 renal
[53] = test system: U251 CNS
[54] = test system: UACC-257 melanoma
[55] = test system: UACC-62 melanoma
[56] = test system: UO-31 renal
[57] = test system: RXF 393 renal
[58] = test system: T-47D breast

Compound `COc1ccc(C2=Nn3c(nnc3-c3cc(Cl)cc(Cl)c3Cl)SC2)cc1` has a GI50 [1] of 0.411 µM, a GI50 [2] of 0.583 µM and a TGI [2] greater than 100 µM. It also gave a GI50 [3] of 0.631 µM, a TGI [3] greater than 37.4 µM and a GI50 [4] of 0.859 µM. For the same compound, the TGI [4] was greater than 100 µM, the GI50 [5] was 0.661 µM and the TGI [5] was greater than 21.9 µM. For the same compound, the GI50 [6] was 0.562 µM, the TGI [6] was greater than 49.7 µM and the GI50 [7] was 0.519 µM. It also gave a TGI [7] greater than 100 µM, a GI50 [8] of 0.792 µM and a TGI [8] of 7.15 µM. The GI50 [9] was 0.355 µM, the TGI [9] was 4.42 µM and the GI50 [10] was 0.622 µM. It also gave a TGI [10] greater than 46.1 µM, a GI50 [11] of 1.21 µM and a TGI [11] of 5.41 µM. It also gave a GI50 [12] of 0.393 µM, a TGI [12] greater than 100 µM and a GI50 [13] of 0.52 µM. The TGI [13] was greater than 100 µM, the GI50 [14] was 0.461 µM and the TGI [14] was 2.03 µM. For the same compound, the GI50 [15] was 0.478 µM, the TGI [15] was greater than 36.2 µM and the GI50 [16] was greater than 33.9 µM. For the same compound, the TGI [16] was greater than 100 µM, the GI50 [17] was 0.376 µM and the TGI [17] was 13.6 µM. It also gave a GI50 [18] of 0.336 µM, a GI50 [19] of 0.339 µM and a TGI [19] of 3.59 µM. For the same compound, the GI50 [20] was 0.44 µM, the TGI [20] was greater than 31.6 µM and the GI50 [21] was 0.384 µM. It also gave a TGI [21] of 8.89 µM, a GI50 [22] of 0.568 µM and a TGI [22] greater than 100 µM. The GI50 [23] was 0.349 µM, the TGI [23] was greater than 34 µM and the GI50 [24] was 0.44 µM. The TGI [24] was greater than 50.5 µM, the GI50 [25] was 0.326 µM and the TGI [25] was greater than 100 µM. The GI50 [26] was 0.81 µM, the TGI [26] was 26.2 µM and the GI50 [27] was 0.163 µM. The TGI [27] was 0.588 µM, the GI50 [28] was 1.49 µM and the TGI [28] was greater than 100 µM. For the same compound, the GI50 [29] was 0.778 µM, the TGI [29] was greater than 100 µM and the GI50 [30] was 0.701 µM. The TGI [30] was greater than 100 µM, the GI50 [31] was 0.502 µM and the TGI [31] was greater than 100 µM. It also gave a GI50 [32] of 0.256 µM, a TGI [32] of 2.51 µM and a GI50 [33] of 0.248 µM. For the same compound, the TGI [33] was 1.26 µM, the GI50 [34] was 0.173 µM and the TGI [34] was 0.772 µM. It also gave a GI50 [35] of 0.805 µM, a TGI [35] greater than 100 µM and a GI50 [36] of 1.42 µM. The TGI [36] was greater than 100 µM, the GI50 [37] was 0.862 µM and the TGI [37] was greater than 40.7 µM. It also gave a GI50 [38] of 0.687 µM, a TGI [38] greater than 100 µM and a GI50 [39] of 0.627 µM. The TGI [39] was greater than 100 µM, the GI50 [40] was 1.3 µM and the TGI [40] was greater than 100 µM. It also gave a GI50 [41] of 0.0576 µM, a TGI [41] of 1.4 µM and a GI50 [42] of 0.225 µM. The TGI [42] was 0.741 µM, the GI50 [43] was 1.21 µM and the TGI [43] was greater than 55.7 µM. It also gave a TGI [44] greater than 100 µM, a GI50 [45] of 0.273 µM and a GI50 [46] of 0.522 µM. It also gave a TGI [46] greater than 100 µM, a GI50 [47] of 1.54 µM and a TGI [47] greater than 100 µM. For the same compound, the GI50 [48] was 0.402 µM, the TGI [48] was 55.1 µM and the GI50 [49] was 0.335 µM. It also gave a GI50 [50] of 0.826 µM, a GI50 [51] of 0.381 µM and a TGI [51] greater than 100 µM. For the same compound, the GI50 [52] was 2.26 µM, the TGI [52] was greater than 53.9 µM and the GI50 [53] was 0.412 µM. The TGI [53] was 24.7 µM, the GI50 [54] was 0.362 µM and the TGI [54] was greater than 95.3 µM. It also gave a GI50 [55] of 0.436 µM, a TGI [55] greater than 100 µM and a GI50 [56] of 0.379 µM. It also gave a TGI [56] of 29.2 µM.
With `CCCCN(CCCC)Cc1cc(Nc2ccnc3cc(Cl)ccc23)ccc1O` the GI50 [3] was 19.8 µM, the TGI [3] was greater than 100 µM and the GI50 [7] was 17.5 µM. The TGI [7] was greater than 100 µM, the GI50 [8] was 6.68 µM and the TGI [8] was greater than 100 µM. It also gave a GI50 [9] greater than 100 µM, a TGI [9] greater than 100 µM and a GI50 [11] of 42.4 µM. For the same compound, the TGI [11] was greater than 100 µM, the GI50 [14] was 5.88 µM and the TGI [14] was greater than 100 µM. The GI50 [15] was 2.54 µM, the TGI [15] was greater than 100 µM and the GI50 [16] was 0.982 µM. The TGI [16] was 22.9 µM, the GI50 [18] was 0.491 µM and the TGI [18] was greater than 100 µM. It also gave a GI50 [19] of 7.36 µM, a TGI [19] greater than 100 µM and a GI50 [20] of 2.3 µM. It also gave a TGI [20] greater than 100 µM, a GI50 [21] greater than 100 µM and a TGI [21] greater than 100 µM. The GI50 [22] was 2.81 µM, the TGI [22] was greater than 100 µM and the GI50 [24] was 24.5 µM. It also gave a TGI [24] greater than 100 µM, a GI50 [25] of 8.91 µM and a TGI [25] greater than 100 µM. The GI50 [28] was 37.5 µM, the TGI [28] was greater than 100 µM and the GI50 [29] was 11.1 µM. For the same compound, the TGI [29] was greater than 100 µM, the GI50 [30] was 8.23 µM and the TGI [30] was greater than 100 µM. The GI50 [32] was 3.75 µM, the TGI [32] was greater than 100 µM and the GI50 [33] was 4.38 µM. It also gave a TGI [33] greater than 100 µM, a GI50 [34] of 74.7 µM and a TGI [34] greater than 100 µM. For the same compound, the GI50 [35] was greater than 100 µM, the TGI [35] was greater than 100 µM and the GI50 [37] was 9.03 µM. It also gave a TGI [37] greater than 100 µM, a GI50 [38] of 5.73 µM and a TGI [38] greater than 100 µM. It also gave a GI50 [39] of 6.6 µM, a TGI [39] greater than 100 µM and a GI50 [57] of 20.9 µM. The TGI [57] was greater than 100 µM, the GI50 [40] was greater than 100 µM and the TGI [40] was greater than 100 µM. The GI50 [43] was 45.1 µM, the TGI [43] was greater than 100 µM and the GI50 [44] was 43.1 µM. For the same compound, the TGI [44] was greater than 100 µM, the GI50 [45] was 8.29 µM and the TGI [45] was greater than 100 µM. For the same compound, the GI50 [46] was 8.83 µM, the TGI [46] was greater than 100 µM and the GI50 [49] was 2.83 µM. For the same compound, the TGI [49] was 13.6 µM, the GI50 [50] was 6.59 µM and the TGI [50] was greater than 100 µM. It also gave a GI50 [58] of 35.9 µM, a TGI [58] greater than 100 µM and a GI50 [52] of 2.62 µM. For the same compound, the TGI [52] was 26.4 µM, the GI50 [53] was 7.82 µM and the TGI [53] was greater than 100 µM. It also gave a GI50 [54] of 40.1 µM, a TGI [54] greater than 100 µM and a GI50 [56] of 1.38 µM. It also gave a TGI [56] greater than 100 µM.
`O=c1[nH]/c(=C/c2ccc(OCc3ccccc3)cn2)c(=O)[nH]/c1=C/c1ccccc1` was tested, and the TGI [1] was greater than 100 µM, the TGI [2] was greater than 100 µM and the TGI [3] was greater than 100 µM. The TGI [4] was greater than 100 µM, the TGI [5] was greater than 100 µM and the TGI [6] was greater than 100 µM. It also gave a TGI [8] greater than 25.4 µM, a TGI [10] greater than 100 µM and a TGI [11] of 0.521 µM. The TGI [12] was greater than 100 µM, the TGI [13] was greater than 46.4 µM and the TGI [15] was greater than 100 µM. The TGI [16] was greater than 100 µM, the TGI [17] was greater than 100 µM and the TGI [18] was greater than 100 µM. The TGI [19] was greater than 24.6 µM, the TGI [20] was greater than 100 µM and the TGI [21] was greater than 100 µM. For the same compound, the TGI [22] was greater than 100 µM, the TGI [23] was greater than 100 µM and the TGI [25] was greater than 100 µM. The TGI [26] was greater than 100 µM, the TGI [27] was 0.567 µM and the TGI [28] was greater than 100 µM. It also gave a TGI [31] greater than 100 µM, a TGI [33] of 0.229 µM and a TGI [34] greater than 78.6 µM. The TGI [35] was greater than 100 µM, the TGI [36] was greater than 100 µM and the TGI [37] was greater than 80.9 µM. For the same compound, the TGI [38] was greater than 100 µM, the TGI [39] was greater than 100 µM and the TGI [57] was greater than 100 µM. It also gave a TGI [40] greater than 100 µM, a TGI [41] greater than 100 µM and a TGI [42] greater than 67 µM. It also gave a TGI [43] greater than 100 µM, a TGI [44] greater than 100 µM and a TGI [46] greater than 100 µM. It also gave a TGI [48] greater than 100 µM, a TGI [49] of 0.0706 µM and a TGI [50] of 14.4 µM. For the same compound, the TGI [51] was greater than 100 µM, the TGI [58] was greater than 100 µM and the TGI [52] was greater than 100 µM. For the same compound, the TGI [53] was greater than 91.6 µM, the TGI [54] was greater than 100 µM and the TGI [55] was greater than 100 µM. It also gave a TGI [56] greater than 100 µM.
